# Experimental data taken from US11925649B2, “Treatments for diabetic neuropathy” (University of Manitoba, priority 2010, dated 2024).
# Key:
# COX IV = COX IV expression in DRG of STZ-diabetic mice (Western blot); type: in vivo, mouse; conditions: daily injections for 8 weeks
# Method: Quantitative Western blotting was performed as described in Example 15. Quantitative Western blotting was performed as previously disclosed by Chowdhury et al (2010) and Fernyhough et al. (1999). DRG homogenates of 5-10 μg of protein were resolved on a 10% SDS-PAGE gel and electroblotted onto nitrocellulose membrane. Blots were then blocked in 5% nonfat milk containing 0.05% Tween-20, rinsed in PBS (pH 7.4) and incubated with the following antibodies: monoclonal anti-cytochrome c oxidase subunit 4 (COX IV; 1:1000, Mitosciences, Eugene, OR, US), monoclonal anti-NADH dehydrogenase (ubiquinone) iron-sulfur protein 3 (NDUFS3, 1:1000, Mitosciences, Eugene, OR, US). Extracellular signal-regulated kinase (T-ERK; 1:2000, Covance, Princeton, NJ, US) was probed as a loading control. The blots were rinsed, incubated in Western blotting Luminol Reagent (Santa Cruz Biotechnology Inc., Santa Cruz, CA, US) and imaged using a BioRad Fluor-S image analyzer (BioRad, Hercules, CA, US).
# [1] = test system: mitochondrial respiratory complex I; assay: Mitochondrial respiratory complex I activity in DRG of STZ-diabetic mice; type: in vivo, mouse; conditions: daily injections for 8 weeks, lumbar DRG
# Method: (§1) All measurements of enzymatic activities in lumbar DRG preparations were performed spectrophotometrically using a temperature controlled Ultrospec 2100 UV-visible spectrophotometer (Biopharmacia Biotech, Uppsala, Sweden) using the methods taught by Chowdhury et al. (2010). Complex I activity was measured as rotenone-sensitive NADH: cytochrome c reductase activity. Freshly prepared assay buffer (50 mmol/l K-phosphate pH 7.4, 1 mmol/l KCN, 100 μmol/l NADH) and 10 μg protein of DRG homogenate preparation were added to the cuvette and preincubated for 3 min at 25° C. After addition of 100 μmol/l oxidized cytochrome c, the reaction was followed for 2 minutes at 550 nm and then for 2 more minutes after addition of 25 μmol/l rotenone to allow calculation of the rotenone-sensitive Complex I activity. Complex IV activity was measured at 25° C. by monitoring the absorbance decrease of reduced cytochrome c at 550 nm as disclosed by Chowdhury et al. (2000, Clin. Chim. Acta 298: 157-173). […] Activity of the Krebs cycle enzyme, citrate synthase, was determined at 25° C. in medium containing 150 mmol/l Tris-HCl (pH 8.2), 0.02% laurylmaltoside, 0.1 mmol/l dithionitrobenzoic acid and 5 μg protein according to the method of Chowdhury et al (2007, Free Radic. Res. 41: 1116-1124). The reaction was initiated by addition of 100 μmol/l acetyl CoA and changes in absorbance at 412 nm were measured for 1 minute. […]
# [2] = test system: mitochondria from lumbar DRG of STZ-diabetic rats; assay: Mitochondrial respiratory chain activity in lumbar DRG of STZ-diabetic rats; type: in vivo, rat; conditions: daily s.c. during last eight weeks, 20 weeks
# Excerpt: The rats were then culled and subsequently the lumbar DRG were isolated and rinsed in ice-cold solution containing STE buffer (250 mmol/l sucrose, 10 mmol/l Tris-HCl, 1 mmol/l EDTA, pH 7.4), and then homogenized with a polytron homogenizer ([…] GmbH, Switzerland) using 3×7.5 s grinding pulses at 30 s intervals according to the method taught by Chowdhury et al. (2010).
# Mitochondrial respiratory chain activity in freshly isolated mitochondria from lumbar DRG of age-matched control, diabetic, and pirenzepine-treated diabetic rats was determined using a Clarke-type electrode (Oroboros Oxygraph-2K; Oroboros Instruments, Innsbruck, Austria) following the method taught by Chowdhury et al. (2005, Biochem Biophys Res Commun. 333: 1139-1145), in the presence of specific substrates and inhibitors of the mitochondrial respiratory chain (FIG. 19). Basal respiration in lumbar DRG mitochondria is stated as respiration at state 4 with energetic substrates, pyruvate and malate (P+M). Coupled respiration at state 3 was induced by addition of ADP. Then, the uncoupled rate was determined by adding the uncoupling agent, carbonylcyanide p-trifluoromethoxyphenylhydrazone (FCCP). Ascorbate (Asc) and N,N,N′,N′-tetramethyl-p-phenylenediamine (TMPD) were then added to determine the capacity of cytochrome c oxidase (complex IV). TMPD is an artificial redox mediator that assists transfer of electrons from ascorbate to cytochrome c.
# [3] = test system: STZ-diabetic Sprague Dawley rats; assay: Prevention of tactile allodynia and sensory nerve conduction slowing in diabetic rats; type: in vivo, rat
# Method: Two groups of adult female Sprague Dawley rats were made diabetic with a single intraperitoneal injection of 55 mg/kg STZ. […] A third group of adult male rats was maintained as non-diabetic controls. The three groups of rats were monitored for the onset of diabetic painful neuropathy by measuring paw tactile response thresholds at weeks 5 and 9 of diabetes, as taught by Calcutt (1996, Pain: 68:293-299). […] Sensory nerve conduction velocity (SNCV) was measured in the same cohorts of rats after 8 weeks of diabetes by measuring under isoflurane anesthesia, the latency of H waves in the electromyogram of interosseous muscles following electrical stimulation of the sciatic nerve at the sciatic notch and Achilles tendon and then measuring the distance between the two points of nerve stimulation, as taught by Calcutt (J. Clin. Invest. 111:507-514, 2003).
# [4] = test system: STZ diabetic C57Bl6J mice; assay: Prophylactic subcutaneous injections in STZ diabetic mice; type: in vivo, mouse
# Method: Male C57Bl6J mice were made diabetic with 2 injections of 90 mg/kg STZ on consecutive days, and then separated into four groups.
# Two months after the second STZ injection, the function of the small sensory neurons in all five groups of mice were determined by measuring hind paw thermal response latency using a modified Hargreaves apparatus (UARD, San Diego, CA, US) with a heating rate of approximately 1° C./sec from a baseline of 30° C. and with a cut-off at 20 seconds as taught by Calcutt et al. (2004, Diabetologia 47: 718-724). […] Statistical analysis was done using the one-way ANOVA with post-hoc comparison using Tukey's test.
# The structural integrity of small sensory neurons was assessed by measuring intraepidermal nerve fiber (IENF) profiles in hind paw plantar skin that was immersion fixed in 4% paraformaldehyde and processed to paraffin blocks. Sections (6 μm) were stained with the pan-neuronal marker PGP9.5 (1:1000, Biogenesis Ltd., Poole, UK) and viewed under a light microscope to allow counting of IENF and sub-epidermal nerve profiles (SNP) per unit length of the dermal: epidermal border using the technique taught by Beiswenger et al. (2008, Neurosci Lett. 442, 267-272). […] Statistical analyses were done using one-way ANOVA followed by Tukey's test.
# Motor nerve conduction velocity was measured under isoflurane anesthesia and core and nerve temperature were maintained at 37° C. using a heating pad and lamps following the teachings of Jolivalt et al, (2011, Diabetes Obesity and Metabolism, June 2 Epub ahead of print). The sciatic nerve was stimulated (5V, 0.05 ms pulse, square wave) with needle electrodes at the sciatic notch or ankle. […] The difference in response latencies of the M wave after stimulation at the sciatic notch and ankle was recorded as the time required for the motor nerve conduction between the stimulation sites. The distance between stimulation sites was measured on the surface of the fully extended hind limb and divided by the difference in M wave latencies to calculate sciatic motor nerve conduction velocity (MNCV). […]
# [5] = test system: mitochondrial respiratory complex IV; assay: Mitochondrial respiratory complex IV activity in DRG of STZ-diabetic mice; type: in vivo, mouse; conditions: daily injections for 8 weeks, lumbar DRG
# Method: as §1
# [6] = test system: sensory neurons from DRG of Sprague Dawley rat; assay: Total neurite outgrowth at low concentrations of M1R antagonists (immunostaining); type: cell-based; conditions: 24 hr culture
# Method: Sensory neurons from cervical, thoracic and lumbar DRG of an adult 3-4 month old male Sprague Dawley rat were isolated and dissociated using the method described in Example 1, and then were cultured for 24 h in serum-free and insulin-free F12 medium in the presence of modified N2 additives. […] Neurite outgrowth was then assessed after a culture period of 24 hr.
# Total neurite lengths (i.e., the sum of the length of all neurites produced by an individual neuron) were assessed using an immunostaining method. […] Four images were captured per well and the replicate well frequency was set to n=6. The neuronal marker β-tubulin III (Sigma-Aldrich Canada Ltd.) was applied to formalin fixed cells. The marker was tagged with the fluorescent conjugate Alexa Fluor 488 (Invitrogen Canada Ltd.). Fluorescent images were collected using an Olympus IX71 inverted microscope with a 20×/0.45 PH1 [sequence] objective that was suitable for resolving images on plastic surfaces. […] Captured image fluorescence was thereafter converted to a grayscale 8-bit image to quantify total pixel volume. […] Total pixel volume of the neuron specific cell bodies and neurites were quantified. […] The net pixel volume was normalized against the number of neuronal cells per quantified field.
# citrate synthase = assay: Citrate synthase activity in DRG of STZ-diabetic mice; type: in vivo, mouse; conditions: daily injections for 8 weeks, lumbar DRG
# Method: as §1
# [7] = test system: DRG sensory neurons from wildtype mice; assay: Neurite outgrowth in sensory neuron cultures from wildtype mice; type: cell-based, mouse; conditions: 1 μM, 24 hr, low dose growth factors
# [8] = test system: STZ diabetic Swiss Webster mice; assay: Restorative subcutaneous injections in diabetic mice; type: in vivo, mouse; conditions: 10 mg/kg daily s.c. from week 14
# Method: Male out-bred Swiss Webster mice were made diabetic with 2 injections of 90 mg/kg STZ on consecutive days. […] The mice were maintained for 14 weeks after STZ injections. […] At 14 weeks, the diabetic mice were separated into two groups. The first was the untreated group of diabetic mice.
# The function of the small sensory neurons in diabetic and non-diabetic groups of mice were assessed at 5 wks, 7 wks, 11 wks, and 14 wks after the STZ injections.
# [9] = 10 mg/kg daily s.c., two months after STZ, vs control mice
smiles,measurement,setting,value
"CN1CCN(CC(=O)N2c3ccccc3C(=O)Nc3cccnc32)CC1 [pirenzepine, 11-[2-(4-methylpiperazin-1-yl)acetyl]-5H-pyrido[2,3-b][1,4]benzodiazepin-6-1]",expression of COX IV mitochondrial protein,COX IV,restored the expression
same,activity of mitochondrial respiratory complex I,[1],restored the deficits
same,capacity of cytochrome c oxidase (complex IV) (Asc+TMPD),[2],not significantly different from the non-diabetic controls
same,coupled respiration (P+M+ADP),[2],not significantly different from the non-diabetic controls
same,uncoupled respiration (FCCP),[2],not significantly different from the non-diabetic controls
same,basal respiration rates with pyruvate and malate (P+M),[2]; vs control and diabetic rats,similar
same,paw tactile response thresholds,"[3]; 10 mg/kg daily s.c., after 5 weeks of diabetes",significantly higher than vehicle treated diabetic rats
same,sensory nerve conduction velocity (SNCV),"[3]; 10 mg/kg daily s.c., after 8 weeks of diabetes",partially prevented this deficit
same,paw tactile response thresholds,"[3]; 10 mg/kg daily s.c., week 9 of diabetes",not different from control rats
same,paw tactile allodynia,"[3]; daily s.c., after 5 or 9 weeks of treatment",prevents paw tactile allodynia
same,hind paw thermal response latency,[4]; [9],not significantly different from the control non-diabetic mice
same,paw levels of IENF,[4]; [9],no significant changes
same,motor nerve conduction velocity,[4]; diabetic mice,prevented deficits in motor nerve conduction velocity
same,activity of mitochondrial respiratory complex IV,[5],restored the deficits
same,concentration that significantly increased total neurite outgrowth,[6],≥ 0.003 µM
same,activity of citrate synthase,citrate synthase,restored the deficits
same,neurite outgrowth compared with LD control,[7],2 fold
same,thermal latency,"[8]; 21st week, 7 weeks of treatment",identical to the non-diabetic controls
same,IENF profiles,[8]; at 21 weeks,restored the IENF profiles to approximate those of the non-diabetic control mice
same,thermal latency,[8]; within 4 weeks of treatment (18 weeks),significantly reduced thermal latency
